Columns and labels:
[1] = target: Serine/threonine-protein kinase PLK1 (Homo sapiens) (UniProt P53350)
[2] = target: 5'-AMP-activated protein kinase catalytic subunit alpha-2 (Homo sapiens) (UniProt P54646)
[3] = target: Cyclin-dependent kinase-like 1 (Homo sapiens) (UniProt Q00532)
[4] = target: Death-associated protein kinase 3 (Homo sapiens) (UniProt O43293)
[5] = target: cAMP-dependent protein kinase catalytic subunit alpha (Homo sapiens) (UniProt P17612)
[6] = target: Serine/threonine-protein kinase 26 (Homo sapiens) (UniProt Q9P289)
Sequence of Serine/threonine-protein kinase 26 (Homo sapiens) (Q9P289 2-416 limits assumed): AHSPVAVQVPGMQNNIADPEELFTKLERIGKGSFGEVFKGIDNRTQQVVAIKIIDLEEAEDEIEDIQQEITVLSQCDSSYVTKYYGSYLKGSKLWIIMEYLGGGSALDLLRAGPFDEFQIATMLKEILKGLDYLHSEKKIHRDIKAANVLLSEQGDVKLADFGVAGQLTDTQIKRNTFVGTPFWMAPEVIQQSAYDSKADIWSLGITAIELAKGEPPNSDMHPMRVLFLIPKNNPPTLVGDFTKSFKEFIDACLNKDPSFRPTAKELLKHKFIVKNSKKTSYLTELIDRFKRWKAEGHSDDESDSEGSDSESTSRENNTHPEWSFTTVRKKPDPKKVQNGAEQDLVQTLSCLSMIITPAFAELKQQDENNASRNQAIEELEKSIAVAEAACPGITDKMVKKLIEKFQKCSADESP

[7] = target: Mitogen-activated protein kinase 3 (Homo sapiens, UniProt P27361)
[8] = target: Cyclin-dependent kinase 6 (Homo sapiens) (UniProt Q00534)
Sequence of Cyclin-dependent kinase 6 (Homo sapiens) (Q00534 whole entry): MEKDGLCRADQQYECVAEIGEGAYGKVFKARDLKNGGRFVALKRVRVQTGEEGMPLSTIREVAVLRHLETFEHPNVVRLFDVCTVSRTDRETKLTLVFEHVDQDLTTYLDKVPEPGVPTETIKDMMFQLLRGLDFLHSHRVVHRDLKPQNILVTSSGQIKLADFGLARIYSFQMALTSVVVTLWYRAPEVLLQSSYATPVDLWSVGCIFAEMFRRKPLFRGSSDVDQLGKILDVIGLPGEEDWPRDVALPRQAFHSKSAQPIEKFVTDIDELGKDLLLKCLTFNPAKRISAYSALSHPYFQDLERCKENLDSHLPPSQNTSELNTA

[9] = target: Dual specificity protein kinase CLK2 (Homo sapiens) (UniProt P49760)
Sequence of Dual specificity protein kinase CLK2 (Homo sapiens) (P49760 whole entry, looked up): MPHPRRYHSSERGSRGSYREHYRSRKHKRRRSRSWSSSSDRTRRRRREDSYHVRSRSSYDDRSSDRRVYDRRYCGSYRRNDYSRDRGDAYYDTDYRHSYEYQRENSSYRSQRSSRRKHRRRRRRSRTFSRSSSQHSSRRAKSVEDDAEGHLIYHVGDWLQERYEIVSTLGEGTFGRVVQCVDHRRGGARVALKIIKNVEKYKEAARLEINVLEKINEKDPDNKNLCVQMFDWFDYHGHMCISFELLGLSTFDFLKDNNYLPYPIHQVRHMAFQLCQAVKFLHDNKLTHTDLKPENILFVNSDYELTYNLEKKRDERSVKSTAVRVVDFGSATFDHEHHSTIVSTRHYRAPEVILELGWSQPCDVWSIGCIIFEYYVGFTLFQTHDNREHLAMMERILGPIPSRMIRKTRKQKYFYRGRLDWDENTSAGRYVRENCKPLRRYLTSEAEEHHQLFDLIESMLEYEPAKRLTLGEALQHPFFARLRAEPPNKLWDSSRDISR

[10] = target: Serine/threonine-protein kinase Chk2 (Homo sapiens, UniProt O96017)
Sequence of Serine/threonine-protein kinase Chk2 (O96017 whole entry): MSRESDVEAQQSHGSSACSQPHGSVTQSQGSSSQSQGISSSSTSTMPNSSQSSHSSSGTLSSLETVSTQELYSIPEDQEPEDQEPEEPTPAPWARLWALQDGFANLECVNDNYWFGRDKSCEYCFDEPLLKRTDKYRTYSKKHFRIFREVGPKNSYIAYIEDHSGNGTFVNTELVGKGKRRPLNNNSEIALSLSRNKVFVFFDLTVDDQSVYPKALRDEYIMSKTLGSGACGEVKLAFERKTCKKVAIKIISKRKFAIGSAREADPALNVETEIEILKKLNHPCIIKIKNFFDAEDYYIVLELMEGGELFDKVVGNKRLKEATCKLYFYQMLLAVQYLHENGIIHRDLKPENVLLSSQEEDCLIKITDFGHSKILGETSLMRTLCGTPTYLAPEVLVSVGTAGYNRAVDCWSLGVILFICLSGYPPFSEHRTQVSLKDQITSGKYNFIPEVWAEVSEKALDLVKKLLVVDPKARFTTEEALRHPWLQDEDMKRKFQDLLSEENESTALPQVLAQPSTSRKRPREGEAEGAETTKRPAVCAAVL

[11] = target: T1, Serine/threonine-protein kinase VRK1 (Homo sapiens) (UniProt Q99986)
T1 sequence (whole entry): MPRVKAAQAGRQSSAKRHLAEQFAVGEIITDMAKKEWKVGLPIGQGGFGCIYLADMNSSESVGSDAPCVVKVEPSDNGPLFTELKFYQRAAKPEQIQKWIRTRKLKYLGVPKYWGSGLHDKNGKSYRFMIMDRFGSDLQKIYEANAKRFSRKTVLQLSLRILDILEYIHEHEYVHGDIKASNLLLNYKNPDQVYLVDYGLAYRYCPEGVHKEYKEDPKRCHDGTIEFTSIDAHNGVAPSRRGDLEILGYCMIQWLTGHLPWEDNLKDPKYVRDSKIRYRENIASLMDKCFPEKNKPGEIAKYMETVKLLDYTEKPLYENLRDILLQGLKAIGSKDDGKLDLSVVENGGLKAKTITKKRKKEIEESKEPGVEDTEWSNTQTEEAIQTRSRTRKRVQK

[12] = target: Serine/threonine-protein kinase 16 (Homo sapiens) (UniProt O75716)
Sequence of Serine/threonine-protein kinase 16 (Homo sapiens) (O75716 whole entry): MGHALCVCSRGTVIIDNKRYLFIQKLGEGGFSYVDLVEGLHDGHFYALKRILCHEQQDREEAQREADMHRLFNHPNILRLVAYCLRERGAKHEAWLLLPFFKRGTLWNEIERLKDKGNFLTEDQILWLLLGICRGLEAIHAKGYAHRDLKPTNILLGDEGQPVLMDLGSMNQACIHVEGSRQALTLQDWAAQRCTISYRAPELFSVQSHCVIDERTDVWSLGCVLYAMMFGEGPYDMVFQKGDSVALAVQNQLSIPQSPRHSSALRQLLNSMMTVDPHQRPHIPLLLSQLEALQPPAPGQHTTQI

[13] = target: T2, Calcium/calmodulin-dependent protein kinase type IV (Homo sapiens) (UniProt Q16566)
T2 sequence (whole entry): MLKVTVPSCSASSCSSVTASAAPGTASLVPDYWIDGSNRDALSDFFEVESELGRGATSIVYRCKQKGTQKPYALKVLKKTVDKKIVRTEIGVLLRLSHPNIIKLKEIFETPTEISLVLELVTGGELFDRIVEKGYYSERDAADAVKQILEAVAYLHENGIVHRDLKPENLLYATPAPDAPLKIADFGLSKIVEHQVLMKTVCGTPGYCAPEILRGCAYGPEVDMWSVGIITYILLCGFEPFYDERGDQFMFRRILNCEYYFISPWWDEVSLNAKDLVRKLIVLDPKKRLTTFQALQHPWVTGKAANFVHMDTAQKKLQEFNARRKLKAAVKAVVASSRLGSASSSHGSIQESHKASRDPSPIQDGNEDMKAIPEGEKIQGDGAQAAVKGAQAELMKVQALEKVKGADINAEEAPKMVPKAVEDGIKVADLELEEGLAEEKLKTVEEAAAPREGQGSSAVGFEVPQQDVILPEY

[14] = target: Ribosomal protein S6 kinase alpha-3 (Homo sapiens) (UniProt P51812)
Sequence of Ribosomal protein S6 kinase alpha-3 (Homo sapiens) (P51812 whole entry): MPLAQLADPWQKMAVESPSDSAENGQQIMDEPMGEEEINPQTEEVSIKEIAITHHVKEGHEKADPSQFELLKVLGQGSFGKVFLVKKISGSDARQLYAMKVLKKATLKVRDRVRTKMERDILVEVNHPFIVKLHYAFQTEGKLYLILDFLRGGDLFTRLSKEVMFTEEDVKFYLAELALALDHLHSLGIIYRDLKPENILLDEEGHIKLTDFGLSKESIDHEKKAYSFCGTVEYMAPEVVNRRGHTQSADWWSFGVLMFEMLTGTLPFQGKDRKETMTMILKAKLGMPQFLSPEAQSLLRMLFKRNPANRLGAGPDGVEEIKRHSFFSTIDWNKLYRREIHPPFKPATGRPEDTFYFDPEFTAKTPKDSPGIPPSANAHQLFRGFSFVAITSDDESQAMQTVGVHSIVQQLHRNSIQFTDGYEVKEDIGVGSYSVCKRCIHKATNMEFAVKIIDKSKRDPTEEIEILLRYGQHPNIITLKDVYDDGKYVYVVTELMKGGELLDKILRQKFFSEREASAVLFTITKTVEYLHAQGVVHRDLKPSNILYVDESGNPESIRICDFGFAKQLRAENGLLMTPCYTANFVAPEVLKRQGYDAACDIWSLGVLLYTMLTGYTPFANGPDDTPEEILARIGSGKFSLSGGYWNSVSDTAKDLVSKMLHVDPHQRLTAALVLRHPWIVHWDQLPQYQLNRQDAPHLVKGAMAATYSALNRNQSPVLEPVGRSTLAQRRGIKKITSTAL

[15] = target: Calcium/calmodulin-dependent protein kinase type II subunit beta (Homo sapiens) (UniProt Q13554)
[16] = target: T3, Myotonin-protein kinase (Homo sapiens) (UniProt Q09013)
T3 sequence (whole entry): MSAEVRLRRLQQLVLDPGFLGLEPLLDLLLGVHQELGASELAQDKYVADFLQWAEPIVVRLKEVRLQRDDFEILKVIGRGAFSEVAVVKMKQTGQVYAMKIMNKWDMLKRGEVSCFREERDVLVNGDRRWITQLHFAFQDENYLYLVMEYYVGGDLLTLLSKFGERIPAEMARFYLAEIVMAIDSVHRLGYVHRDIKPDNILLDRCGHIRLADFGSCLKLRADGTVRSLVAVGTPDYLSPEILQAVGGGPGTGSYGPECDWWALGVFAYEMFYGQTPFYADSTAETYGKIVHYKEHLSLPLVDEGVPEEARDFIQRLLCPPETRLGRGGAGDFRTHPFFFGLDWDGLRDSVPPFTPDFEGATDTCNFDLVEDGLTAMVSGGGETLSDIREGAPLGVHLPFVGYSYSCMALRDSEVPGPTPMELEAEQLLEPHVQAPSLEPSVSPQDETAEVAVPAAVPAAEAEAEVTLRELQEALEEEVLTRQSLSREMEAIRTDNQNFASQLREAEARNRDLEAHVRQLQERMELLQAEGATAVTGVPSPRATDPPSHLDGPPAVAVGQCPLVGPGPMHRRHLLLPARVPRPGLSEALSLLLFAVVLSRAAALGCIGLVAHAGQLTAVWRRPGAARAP

[17] = target: Tyrosine-protein kinase JAK1 (Homo sapiens) (UniProt P23458)
Sequence of Tyrosine-protein kinase JAK1 (Homo sapiens) (P23458 whole entry): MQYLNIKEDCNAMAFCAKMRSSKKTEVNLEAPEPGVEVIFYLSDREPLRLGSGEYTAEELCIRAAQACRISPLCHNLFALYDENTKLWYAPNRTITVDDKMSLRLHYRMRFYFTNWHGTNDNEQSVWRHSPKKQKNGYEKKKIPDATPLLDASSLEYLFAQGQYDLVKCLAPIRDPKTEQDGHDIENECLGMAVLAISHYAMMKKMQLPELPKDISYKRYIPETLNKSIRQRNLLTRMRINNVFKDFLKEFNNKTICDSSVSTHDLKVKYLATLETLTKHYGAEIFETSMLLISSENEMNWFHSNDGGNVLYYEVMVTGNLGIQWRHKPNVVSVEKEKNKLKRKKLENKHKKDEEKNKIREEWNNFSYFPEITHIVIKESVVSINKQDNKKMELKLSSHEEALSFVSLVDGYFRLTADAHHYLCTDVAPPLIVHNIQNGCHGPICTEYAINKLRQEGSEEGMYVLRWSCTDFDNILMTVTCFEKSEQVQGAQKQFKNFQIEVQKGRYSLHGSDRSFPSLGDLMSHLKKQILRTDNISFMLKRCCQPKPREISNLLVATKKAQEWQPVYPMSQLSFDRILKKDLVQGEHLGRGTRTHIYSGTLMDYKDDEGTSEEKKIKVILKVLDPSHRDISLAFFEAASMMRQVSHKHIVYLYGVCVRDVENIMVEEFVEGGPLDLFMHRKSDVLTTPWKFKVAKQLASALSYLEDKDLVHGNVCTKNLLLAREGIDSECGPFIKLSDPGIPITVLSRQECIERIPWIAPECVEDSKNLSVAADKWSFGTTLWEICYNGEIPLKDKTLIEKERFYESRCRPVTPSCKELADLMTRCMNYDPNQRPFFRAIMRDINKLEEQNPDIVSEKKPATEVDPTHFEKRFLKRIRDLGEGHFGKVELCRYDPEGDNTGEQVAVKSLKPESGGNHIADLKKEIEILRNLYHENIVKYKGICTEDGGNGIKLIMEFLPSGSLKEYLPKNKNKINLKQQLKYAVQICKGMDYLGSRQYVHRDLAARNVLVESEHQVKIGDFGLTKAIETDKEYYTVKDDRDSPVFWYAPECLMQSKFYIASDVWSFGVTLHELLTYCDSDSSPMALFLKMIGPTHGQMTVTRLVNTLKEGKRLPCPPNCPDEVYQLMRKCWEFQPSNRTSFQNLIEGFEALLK

[18] = target: Dual specificity protein kinase CLK1 (Homo sapiens) (UniProt P49759)

Sequence of Death-associated protein kinase 3 (Homo sapiens) (O43293 whole entry, looked up): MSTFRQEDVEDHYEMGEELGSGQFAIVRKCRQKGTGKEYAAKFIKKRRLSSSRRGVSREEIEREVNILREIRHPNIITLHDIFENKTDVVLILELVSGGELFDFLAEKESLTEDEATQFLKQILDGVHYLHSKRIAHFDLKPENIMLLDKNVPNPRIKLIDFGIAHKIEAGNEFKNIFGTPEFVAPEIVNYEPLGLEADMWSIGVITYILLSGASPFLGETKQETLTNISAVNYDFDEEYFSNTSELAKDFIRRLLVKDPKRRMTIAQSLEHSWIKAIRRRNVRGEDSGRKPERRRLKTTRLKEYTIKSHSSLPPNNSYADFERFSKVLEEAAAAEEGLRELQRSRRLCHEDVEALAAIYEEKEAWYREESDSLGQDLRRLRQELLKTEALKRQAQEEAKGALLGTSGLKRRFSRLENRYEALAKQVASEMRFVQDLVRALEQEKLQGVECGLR
Sequence of 5'-AMP-activated protein kinase catalytic subunit alpha-2 (Homo sapiens) (P54646 whole entry, looked up): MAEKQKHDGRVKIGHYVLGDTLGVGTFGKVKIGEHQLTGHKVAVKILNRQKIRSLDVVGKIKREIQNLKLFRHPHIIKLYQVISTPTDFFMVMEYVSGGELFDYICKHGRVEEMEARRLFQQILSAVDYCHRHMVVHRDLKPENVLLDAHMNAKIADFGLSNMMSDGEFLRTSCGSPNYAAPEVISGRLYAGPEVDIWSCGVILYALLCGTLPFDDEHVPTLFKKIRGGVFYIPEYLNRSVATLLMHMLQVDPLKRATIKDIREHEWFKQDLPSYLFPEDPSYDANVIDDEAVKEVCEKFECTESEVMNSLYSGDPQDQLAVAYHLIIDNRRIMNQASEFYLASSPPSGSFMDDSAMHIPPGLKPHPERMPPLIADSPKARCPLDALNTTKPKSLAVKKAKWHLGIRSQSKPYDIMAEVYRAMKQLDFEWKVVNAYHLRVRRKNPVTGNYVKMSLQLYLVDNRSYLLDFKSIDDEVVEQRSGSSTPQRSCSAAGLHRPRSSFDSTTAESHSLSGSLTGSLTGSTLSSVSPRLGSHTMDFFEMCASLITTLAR

Row | SMILES | ΔTm [1] [°C] | ΔTm [2] [°C] | ΔTm [3] [°C] | ΔTm [4] [°C] | ΔTm [5] [°C] | ΔTm [6] [°C] | ΔTm [7] [°C] | ΔTm [8] [°C] | ΔTm [9] [°C] | ΔTm [10] [°C] | ΔTm [11] [°C] | ΔTm [12] [°C] | ΔTm [13] [°C] | ΔTm [14] [°C] | ΔTm [15] [°C] | ΔTm [16] [°C] | ΔTm [17] [°C] | ΔTm [18] [°C]
1 | O=[N+]([O-])c1ccc(-c2nc(-c3ccc(F)cc3)c(-c3ccncc3)[nH]2)cc1 | -1.4 | -0.4 | 0 | 0.1 | 1.6 | -1.4 | 0.5 | 0.9 | 0.1 | -0.4 | 0 | 0.5 | -0.2 | 0.7 | -0.5 | -0.2 | 3.7 | -1.2
2 | OC[C@H]1O[C@@H](n2cnc3cc(Cl)c(Cl)cc32)[C@H](O)[C@@H]1O | -0.5 | -0.7 | -0.2 | 1.6 | 0.4 | -0.3 | 0.4 | -0.3 | 1.6 | 0.2 | -0.1 | 1.1 | 0.2 | 0 | -0.1 | 0.1 | 0 | 3.1
3 | COc1cc2ncnc(Nc3ccc(F)c(Cl)c3)c2cc1OCCCN1CCOCC1 | 1.2 | -0.3 | 0.2 | 3.2 | 1.1 | 1.2 | -0.2 | 0.6 | 0 | 3.1 | 0.5 | 3.1 | 0.6 | 5.3 | 0.3 | 3.6 | 1.2 | 0.7
4 | COC1=C2C[C@@H](C)C[C@H](OC)[C@H](O)[C@@H](C)/C=C(\C)[C@H](OC(N)=O)[C@@H](OC)/C=C\C=C(/C)C(=O)NC(=CC1=O)C2=O | 0.1 | 0.4 | -0.5 | -0.6 | 1.1 | -0.3 | 0.1 | 0.1 | -0.1 | 0.2 | -0.1 | 0.4 | 0 | -0.3 | -0.1 | -0.3 | -0.5 | 0.6
5 | N#C/C(=C\c1ccc(O)c(O)c1)C(=O)NCc1ccccc1 | 0.7 | -0.2 | -0.3 | 1.8 | 0.6 | 0 | 0.8 | 0.4 | 0.7 | 0.4 | 0.4 | 0.4 | 0.6 | 1.2 | 0.2 | -0.6 | 1.3 | 1
6 | Cn1cc(C2=C(c3cn(CCCSC(=N)N)c4ccccc34)C(=O)NC2=O)c2ccccc21 | 0.3 | 2.1 | 2.2 | 1.5 | 4.4 | -0.6 | 0.7 | 3.2 | 5.1 | 7 | 1.6 | 3.9 | 3.2 | 2.1 | 2 | 7.1 | 0 | 9.6
7 | O=C(O)Cc1ccc(O)c([N+](=O)[O-])c1 | 0.4 | 0.1 | 1.2 | 0.5 | -0.9 | 1.1 | -0.2 | 0.1 | 0.5 | -0.8 | 0.4 | 0.4 | 3.3 | 1.1 | 0.6 | 1.6 | -0.3 | -0.6
8 | O=c1sn(Cc2ccccc2)c(=S)n1Cc1ccccc1 | 1.3 | -0.9 | -0.3 | -0.2 | 0.4 | 0.5 | -0.3 | -0.4 | -0.2 | 0.3 | 0.6 | -0.4 | 0.9 | -0.4 | 1 | 0.5 | 2.3 | 0.2
9 | O=C1Nc2ccc(I)cc2/C1=C\c1cc(Br)c(O)c(Br)c1 | 0.5 | 1 | -2.8 | 2.6 | 1 | 1.6 | 0.5 | 0.3 | 1.2 | 0.1 | 1.7 | 1 | 0.2 | 5.1 | -0.1 | 0.2 | 4.5 | 1.3
10 | O=C1C=C2C(=Nc3c2c2c(c4c3=NC3=C4CCC=C3)C=NC=2)CC1 | 11.9 | -0.2 | 6.6 | 3.8 | 2.1 | 8.5 | 0.6 | 2.7 | 4.2 | 7.9 | 1.1 | 11.5 | 0.8 | 5.1 | 0.1 | 5.1 | 6.9 | 3.1
11 | O=c1cc(N2CCOCC2)oc2c(-c3ccccc3)cccc12 | 4.7 | -0.9 | -0.5 | 1.4 | -0.1 | 0.2 | -0.6 | 0.5 | 0.1 | -0.4 | 0.8 | 0.4 | 1 | 0.2 | 0.5 | 0.4 | 0.6 | 1.3
12 | C#Cc1cccc(Nc2ncnc3cc(OCCOC)c(OCCOC)cc23)c1 | 1.6 | -0.6 | 0 | 1.2 | 0 | 0.6 | -0.3 | 0.5 | 0.3 | 0.4 | 0.3 | 0.7 | 0.1 | 6.3 | 0.5 | 3.4 | -0.1 | -0.5

— ChEMBL document CHEMBL1145498, “A systematic interaction map of validated kinase inhibitors with Ser/Thr kinases” (Proc Natl Acad Sci U S A, 2007)
